In article PMC4145624, “Simultaneous purification of nitrile hydratase and amidase of Alcaligenes sp. MTCC 10674” (3 Biotech, 2013):

How the values were obtained:
[1] = tested on: T1, Nitrile hydratase (Nhase); assay: acrylamide formation at […] nm; type: biochemical, Alcaligenes sp. MTCC 10674; conditions: sodium phosphate buffer 0.125 M, pH 8.0, 15 °C (standard assay)
T1 construct: gene nthA; native, purified from Alcaligenes sp; MTCC 10674 cells (DEAE-Sepharose); heterodimer of 24 and 21 kDa, 47 kDa by native PAGE

[2] = tested on: T2, Amidase; assay: ammonia release assay; type: biochemical, Alcaligenes sp. MTCC 10674; conditions: sodium phosphate buffer 0.075 M, pH 8.0, 45 °C (standard assay); substrate named, not in the Km sentence
T2 construct: native, purified from Alcaligenes sp; MTCC 10674 cells (DEAE-Sepharose, Sephacryl S-100); dimer of 52 and 49 kDa, 114 kDa by native PAGE

C=CC#N [acrylonitrile]
Km [1]: 40 mM

CCC(N)=O [propionamide]
Km [2]: 45.5 mM
